In patent US20090286827A1, “NOVEL BI-ARYL AMINES” (priority 2006, published 2009):

Biological target: T1, mGluR5 (Homo sapiens, UniProt P41594)
T1 construct: expressed in transfected cells
Experiment: inhibition of the glutamate induced elevation of intracellular Ca2+-concentration
Format: cell-based
Settings: inhibition of glutamate induced elevation of intracellular Ca2+ at a concentration of 10 μM
Source text: This can be determined in vitro for example at recombinant human metabotropic glutamate receptors, especially PLC-coupled subtypes thereof such as mGluR5, using different procedures like, for example, measurement of the inhibition of the agonist induced elevation of intracellular Ca^2+ concentration in accordance with L. P. Daggett et al., Neuropharm. Vol. 34, pages 871-886 (1995), P. J. Flor et al., J. Neurochem. Vol. 67, pages 58-63 (1996) or by determination to what extent the agonist induced elevation of the inositol phosphate turnover is inhibited as described by T. Knoepfel et al., Eur. J. Pharmacol. Vol. 288, pages 389-392 (1995), L. P. Daggett et al., Neuropharm. Vol. 34, pages 871-886 (1995) and references cited therein. Isolation and expression of human mGluR subtypes are described in U.S. Pat. No. 5,521,297. Selected agents of the invention show IC50 values for the inhibition of the agonist (e.g. glutamate or quisqualate) induced elevation of intracellular Ca2+ concentration or the agonist (e.g. glutamate or quisqualate) induced inositol phosphate turnover, measured in recombinant cells expressing hmGluR5a of about 1 nM to about 50 μM.
Activity of compounds of the present invention was examined by measurement of the inhibition of the glutamate induced elevation of intracellular Ca^2+-concentration following similar methods than those described in L. P. Daggett et al., Neuropharm. Vol. 34, pages 871-886 (1995), P. J. Flor et al., J. Neurochem. Vol. 67, pages 58-63 (1996).
The table below represents percentages of inhibition of the glutamate induced elevation of intracellular Ca^2+-concentration at a concentration of 10 μM.

T1 sequence (P41594 21-1180 isoform P41594-2 limits assumed): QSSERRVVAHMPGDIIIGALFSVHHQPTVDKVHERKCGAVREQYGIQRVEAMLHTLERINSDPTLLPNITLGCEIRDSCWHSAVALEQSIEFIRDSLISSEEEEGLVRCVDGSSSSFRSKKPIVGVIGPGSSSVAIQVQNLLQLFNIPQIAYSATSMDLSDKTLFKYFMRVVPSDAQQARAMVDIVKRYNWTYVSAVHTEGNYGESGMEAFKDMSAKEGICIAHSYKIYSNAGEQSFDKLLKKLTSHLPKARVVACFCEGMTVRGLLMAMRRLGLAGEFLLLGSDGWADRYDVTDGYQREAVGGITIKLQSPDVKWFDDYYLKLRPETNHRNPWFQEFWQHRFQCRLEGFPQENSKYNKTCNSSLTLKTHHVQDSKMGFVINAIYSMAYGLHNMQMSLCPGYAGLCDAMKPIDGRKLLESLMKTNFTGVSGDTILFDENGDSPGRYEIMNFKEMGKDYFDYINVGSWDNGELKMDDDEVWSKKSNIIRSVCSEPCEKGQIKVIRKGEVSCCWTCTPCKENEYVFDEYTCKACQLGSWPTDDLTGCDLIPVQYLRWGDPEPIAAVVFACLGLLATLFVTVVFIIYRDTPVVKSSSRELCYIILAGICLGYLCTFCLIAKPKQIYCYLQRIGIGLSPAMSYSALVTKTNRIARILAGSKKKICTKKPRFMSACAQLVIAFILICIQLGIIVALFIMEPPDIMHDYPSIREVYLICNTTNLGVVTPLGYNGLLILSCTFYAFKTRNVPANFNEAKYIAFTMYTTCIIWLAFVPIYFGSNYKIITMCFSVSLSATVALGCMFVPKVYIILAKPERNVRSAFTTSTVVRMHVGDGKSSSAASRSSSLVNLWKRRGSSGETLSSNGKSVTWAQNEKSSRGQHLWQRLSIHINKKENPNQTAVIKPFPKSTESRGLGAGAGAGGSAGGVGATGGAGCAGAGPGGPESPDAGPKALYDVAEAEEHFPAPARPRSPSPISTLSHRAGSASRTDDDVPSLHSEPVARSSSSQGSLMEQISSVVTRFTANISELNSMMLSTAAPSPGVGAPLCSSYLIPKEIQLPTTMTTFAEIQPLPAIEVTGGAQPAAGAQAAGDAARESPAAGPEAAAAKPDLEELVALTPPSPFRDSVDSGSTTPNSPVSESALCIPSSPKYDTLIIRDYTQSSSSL

mGluR5 Activity inh. at 10 μM [%]	SMILES
27	Clc1ccc(Nc2ccc(-c3nccn3C3CCCCC3)cn2)cc1 [Compound 7, (4-Chloro-phenyl)-[5-(1-yclohexyl-1H-imidazol-2-yl)-pyridin-2-yl]-amine]

Same assay, conditions: inhibition of glutamate induced elevation of intracellular Ca2+ at a concentration of 10 μM; read-out: mGluR5 Activity inh. at 10 μM [%]

SMILES	inhibition at 10 µM [%]
CCn1cccc1-c1cnc(Nc2ccc(Cl)cc2)c(Cl)c1 [Compound 28, [3-Chloro-5-(1-ethyl-1H-pyrrol-2-yl)-pyridin-2-yl]-(4-chloro-phenyl)-amine]	31
CCn1ccnc1-c1cnc(Nc2ccc(Cl)cc2)c(Cl)c1 [Compound 15, [3-Chloro-5-(1-ethyl-1H-imidazol-2-yl)-pyridin-2-yl]-(4-chloro-phenyl)-amine]	100
CCn1c(-c2cnc(Nc3ccc(Cl)cc3)c(Cl)c2)nc(C)c1C [Compound 20, [3-Chloro-5-(1-ethyl-4,5-dimethyl-1H-imidazol-2-yl)-pyridin-2-yl]-(4-chloro-phenyl)-amine]	92
Clc1ccc(Nc2ncc(-c3nnc4n3CCCCC4)cc2Cl)cc1 [Compound 25, (4-Chloro-phenyl)-[3-chloro-5-(6,7,8,9-tetrahydro-5H-[1,2,4]triazolo[4,3-a]azepin-3-yl)-pyridin-2-yl]-amine]	93
CCCn1nnnc1-c1cnc(Nc2ccc(Cl)cc2)c(Cl)c1 [Compound 22, (4-Chloro-phenyl)-[3-chloro-5-(1-propyl-1H-tetrazol-5-yl)-pyridin-2-yl]-amine]	49
CCCn1ccnc1-c1ccc(Nc2ccc(Cl)cc2)nc1 [Compound 3, (4-Chloro-phenyl)-[5-(1-propyl-1H-imidazol-2-yl)-pyridin-2-yl]-amine]	96
Clc1ccc(Nc2ncc(-c3nnn[nH]3)cc2Cl)cc1 [Compound 21, (4-Chloro-phenyl)-[3-chloro-5-(1H-tetrazol-5-yl)-pyridin-2-yl]-amine]	56
Cc1cn(C)c(-c2cnc(Nc3ccc(Cl)cc3)c(Cl)c2)n1 [Compound 30, [3-Chloro-5-(1,4-dimethyl-1H-imidazol-2-yl)-pyridin-2-yl]-(4-chloro-phenyl)-amine]	98
CC(C)Cn1ccnc1-c1ccc(Nc2ccc(Cl)cc2)nc1 [Compound 5, (4-Chloro-phenyl)-[5-(1-isobutyl-1H-imidazol-2-yl)-pyridin-2-yl]-amine]	95
Clc1ccc(Nc2ncc(-c3ncc4n3CCCC4)cc2Cl)cc1 [Compound 17, (4-Chloro-phenyl)-[3-chloro-5-(5,6,7,8-tetrahydro-imidazo[1,5-a]pyridin-3-yl)-pyridin-2-yl]-amine]	95
Clc1ccc(Nc2ncc(-c3nnc4n3CCCCCCC4)cc2Cl)cc1 [Compound 27, [3-Chloro-5-(6,7,8,9,10,11-hexahydro-5H-[1,2,4]triazolo[4,3-a]azonin-3-yl)-pyridin-2-yl]-(4-chloro-phenyl)-amine]	100
Clc1ccc(Nc2ccc(-c3nnc4n3CCCC4)cn2)cc1 [Compound 13, (4-Chloro-phenyl)-[5-(5,6,7,8-tetrahydro-[1,2,4]triazolo[4,3-a]pyridin-3-yl)-pyridin-2-yl]-amine]	95
Clc1ccc(Nc2ccc(-c3nnc4ccccn34)cn2)cc1 [Compound 14, (4-Chloro-phenyl)-(5-[1,2,4]triazolo[4,3-a]pyridin-3-yl-pyridin-2-yl)-amine]	28
CC(C)Cn1nnnc1-c1cnc(Nc2ccc(Cl)cc2)c(Cl)c1 [Compound 23, [3-Chloro-5-(1-isobutyl-1H-tetrazol-5-yl)-pyridin-2-yl]-(4-chloro-phenyl)-amine]	53
Clc1ccc(Nc2ncc(-c3ncc4ccccn34)cc2Cl)cc1 [Compound 16, (3-Chloro-5-imidazo[1,5-a]pyridin-3-yl-pyridin-2-yl)-(4-chloro-phenyl)-amine]	32
Cn1ccnc1-c1ccc(Nc2ccc(Cl)cc2)nc1 [Compound 2, (4-Chloro-phenyl)-[5-(1-methyl-1H-imidazol-2-yl)-pyridin-2-yl]-amine]	81
Clc1ccc(Nc2ccc(-c3nccn3Cc3ccccc3)cn2)cc1 [Compound 8, [5-(1-Benzyl-1H-imidazol-2-yl)-pyridin-2-yl]-(4-chloro-phenyl)-amine]	36
Clc1ccc(Nc2ncc(-c3nnc4n3CCCC4)cc2Cl)cc1 [Compound 24, (4-Chloro-phenyl)-[3-chloro-5-(5,6,7,8-tetrahydro-[1,2,4]triazolo[4,3-a]pyridin-3-yl)-pyridin-2-yl]-amine]	89
CCn1ccnc1-c1cnc(Nc2ccc(C)nc2)c(Cl)c1 [Compound 18, [3-Chloro-5-(1-ethyl-1H-imidazol-2-yl)-pyridin-2-yl]-(6-methyl-pyridin-3-yl)-amine]	95
CC(C)n1cnnc1-c1ccc(Nc2ccc(Cl)cc2)nc1 [Compound 12, (4-Chloro-phenyl)-[5-(4-isopropyl-4H-[1,2,4]triazol-3-yl)-pyridin-2-yl]-amine]	40
Clc1ccc(Nc2ccc(-c3nccn3CC3CC3)cn2)cc1 [Compound 6, (4-Chloro-phenyl)-[5-(1-cyclopropylmethyl-1H-imidazol-2-yl)-pyridin-2-yl]-amine]	96
Cc1cc(-c2cnc(Nc3ccc(Cl)cc3)c(Cl)c2)n(C)n1 [Compound 29, [3-Chloro-5-(2,5-dimethyl-2H-pyrazol-3-yl)-pyridin-2-yl]-(4-chloro-phenyl)-amine]	39

Results, then the molecule that gave them:

inhibition at 10 µM [%]	SMILES
94	CCCn1c(-c2cnc(Nc3ccc(Cl)cc3)c(Cl)c2)nc(C)c1C [Compound 42, [3-Chloro-5-(4,5-dimethyl-1-propyl-1H-imidazol-2-yl)-pyridin-2-yl]-(4-chloro-phenyl)-amine]
97	CCn1cc(C(C)(C)C)nc1-c1cnc(Nc2ccc(Cl)cc2)c(Cl)c1 [Compound 39, [5-(4-tert-Butyl-1-ethyl-1H-imidazol-2-yl)-3-chloro-pyridin-2-yl]-(4-chloro-phenyl)-amine]
79	CCCCn1cc(C(C)(C)C)nc1-c1cnc(Nc2ccc(Cl)cc2)c(Cl)c1 [Compound 41, [5-(1-Butyl-4-tert-butyl-1H-imidazol-2-yl)-3-chloro-pyridin-2-yl]-(4-chloro-phenyl)-amine]
32	Cc1cncn1-c1cnc(Nc2ccc(Cl)cc2)c(Cl)c1 [Compound 48, [3-Chloro-5-(5-methyl-imidazol-1-yl)-pyridin-2-yl]-(4-chloro-phenyl)-amine]
34	CC(C)c1nccn1-c1cnc(Nc2ccc(Cl)cc2)c(Cl)c1 [Compound 47, [3-Chloro-5-(2-isopropyl-imidazol-1-yl)-pyridin-2-yl]-(4-chloro-phenyl)-amine]
95	CC(C)(C)c1cnc(-c2cnc(Nc3ccc(Cl)cc3)c(Cl)c2)[nH]1 [Compound 37, [5-(5-tert-Butyl-1H-imidazol-2-yl)-3-chloro-pyridin-2-yl]-(4-chloro-phenyl)-amine]
68	CCCc1nn[nH]c1-c1cnc(Nc2ccc(Cl)cc2)c(Cl)c1 [Compound 46, (4-Chloro-phenyl)-[3-chloro-5-(5-propyl-3H-[1,2,3]triazol-4-yl)-pyridin-2-yl]-amine]
100	CCCCn1cc(CC)nc1-c1cnc(Nc2ccc(Cl)cc2)c(Cl)c1 [Compound 35, [5-(1-Butyl-4-ethyl-1H-imidazol-2-yl)-3-chloro-pyridin-2-yl]-(4-chloro-phenyl)-amine]
78	CCc1cn(CC)c(-c2cnc(Nc3ccc(Cl)cc3)c(Cl)c2)n1 [Compound 36, [3-Chloro-5-(1,4-diethyl-1H-imidazol-2-yl)-pyridin-2-yl]-(4-chloro-phenyl)-amine]
86	Cn1cc(C(C)(C)C)nc1-c1cnc(Nc2ccc(Cl)cc2)c(Cl)c1 [Compound 38, [5-(4-tert-Butyl-1-methyl-1H-imidazol-2-yl)-3-chloro-pyridin-2-yl]-(4-chloro-phenyl)-amine]
89	CCCc1cnnn1-c1cnc(Nc2ccc(Cl)cc2)c(Cl)c1 [Compound 45, (4-Chloro-phenyl)-[3-chloro-5-(5-propyl-[1,2,3]triazol-1-yl)-pyridin-2-yl]-amine]
98	CCCCc1cnnn1-c1cnc(Nc2ccc(Cl)cc2)c(Cl)c1 [Compound 44, [5-(5-Butyl-[1,2,3]triazol-1-yl)-3-chloro-pyridin-2-yl]-(4-chloro-phenyl)-amine]
100	CCCn1cc(C)nc1-c1cnc(Nc2ccc(Cl)cc2)c(Cl)c1 [Compound 33, [3-Chloro-5-(4-methyl-1-propyl-1H-imidazol-2-yl)-pyridin-2-yl]-(4-chloro-phenyl)-amine]
95	CCn1cc(C)nc1-c1cnc(Nc2ccc(Cl)cc2)c(Cl)c1 [Compound 32, [3-Chloro-5-(1-ethyl-4-methyl-1H-imidazol-2-yl)-pyridin-2-yl]-(4-chloro-phenyl)-amine]
